Test results published in patent US10894807B2 (Siemens Medical Solutions USA, Inc., priority 2011, dated 2021).

What follows are compounds tested against human PSMA (Homo sapiens (Human), UniProt Q04609) (assay: Enzymatic assay for in vitro evaluation of PSMA inhibitors (fluorescent assay of PSMA activity, NAAG substrate, OPA detection of glutamate)). Settings: not given.
Assay type: biochemical

human PSMA, sequence (Q04609 whole entry): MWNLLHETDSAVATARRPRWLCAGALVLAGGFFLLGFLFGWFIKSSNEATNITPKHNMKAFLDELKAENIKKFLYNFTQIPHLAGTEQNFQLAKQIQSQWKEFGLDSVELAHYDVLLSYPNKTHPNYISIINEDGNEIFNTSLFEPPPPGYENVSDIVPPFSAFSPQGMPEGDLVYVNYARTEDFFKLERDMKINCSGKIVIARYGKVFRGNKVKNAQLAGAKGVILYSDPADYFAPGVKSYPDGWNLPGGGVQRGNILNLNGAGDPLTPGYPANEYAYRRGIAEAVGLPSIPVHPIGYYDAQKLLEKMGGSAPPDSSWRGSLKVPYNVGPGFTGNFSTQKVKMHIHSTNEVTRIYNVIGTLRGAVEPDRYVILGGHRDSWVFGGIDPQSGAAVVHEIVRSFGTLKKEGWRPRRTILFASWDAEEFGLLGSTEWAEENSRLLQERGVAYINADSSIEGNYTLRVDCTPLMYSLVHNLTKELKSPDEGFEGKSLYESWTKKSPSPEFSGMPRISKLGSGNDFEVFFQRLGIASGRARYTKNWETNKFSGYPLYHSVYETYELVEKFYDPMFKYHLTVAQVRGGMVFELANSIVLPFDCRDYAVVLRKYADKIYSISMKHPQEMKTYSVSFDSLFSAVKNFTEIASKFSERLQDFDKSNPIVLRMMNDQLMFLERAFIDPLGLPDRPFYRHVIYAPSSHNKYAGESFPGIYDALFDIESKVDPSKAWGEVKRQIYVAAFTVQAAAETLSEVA

Compound `O=C(O)CC[C@@H](C(=O)O)N(O)C(=O)N[C@@H](CCCCNC(=O)Cn1cc(CCCF)nn1)C(=O)O` [P148, (S)-2-(3-((S)-1-Carboxy-5-(2-(4-(3-fluoropropyl)-1H-1,2,3-triazol-1-yl)acetamido)pentyl)-1-hydroxyureido)pentanedioic Acid] has a Ki of 250 nM.

Same assay, conditions: compound at 10 μM

First: CCC1(CC)C(=O)N([C@@H](CCCCNC(=O)OCc2ccccc2)C(=O)O)C(=S)N([C@@H](CCC(=O)O)C(=O)O)C1=O [P138, (S)-2-(3-((S)-5-(Benzyloxycarbonylamino)-1-carboxypentyl)-5,5-diethyl-4,6-dioxo-2-thioxotetrahydropyrimidin-1(2H)-yl)pentanedioic Acid]
Second: CN(C(=S)N[C@@H](CCC(=O)O)C(=O)O)[C@@H](CCCCNC(=O)OCc1ccccc1)C(=O)O [P143, (9S,13S)-10-Methyl-3-oxo-1-phenyl-1-thioxo-2-oxa-4,10,12-triazapentadecane-9,13,15-tricarboxylic Acid]
The “PSMA Blkg % (10 μM)” value of the first is lower: 6% for the first, 15% for the second.

Compared with `O=C(O)CC[C@H](NC(=O)N(O)[C@@H](CCCNC(=O)OCc1ccccc1)C(=O)O)C(=O)O` [P139, (8S,12S)-9-Hydroxy-3,10-dioxo-1-phenyl-2-oxa-4,9,11-triazatetradecane-8,12,14-tricarboxylic Acid], `O=C(O)CC[C@@H](C(=O)O)N(O)C(=O)N[C@@H](CCCCNC(=O)OCc1ccccc1)C(=O)O` [P140, (9S,13S)-12-Hydroxy-3,11-dioxo-1-phenyl-2-oxa-4,10,12-triazapentadecane-9,13,15-tricarboxylic Acid] is higher in “PSMA Blkg % (10 μM)” value: 16% for the first, 64% for the second.

Going from `O=C(O)CC[C@H](NC(=O)CN(O)C(=O)CCCNC(=O)c1ccc(-n2cc(CCCF)nn2)cc1)C(=O)O` [P141, (S)-2-(2-(4-(4-(4-(3-Fluoropropyl)-1H-1,2,3-triazol-1-yl)benzamido)-N-hydroxybutanamido)acetamido)pentanedioic Acid] to `O=C(O)CC[C@H](NC(=O)CN(O)C(=O)CCc1ccc(-n2cc(CCCF)nn2)cc1)C(=O)O` [P144, (S)-2-(2-(3-(4-(4-(3-Fluoropropyl)-1H-1,2,3-triazol-1-yl)phenyl)-N-hydroxypropanamido)acetamido)pentanedioic Acid], the “PSMA Blkg % (10 μM)” value rises from 1% to 7%.

Compared with `O=C(O)CC[C@H](NC(=O)CN(O)C(=O)CCCNC(=O)Cn1cc(CCCF)nn1)C(=O)O` [P142, (S)-2-(2-(4-(2-(4-(3-Fluoropropyl)-1H-1,2,3-triazol-1-yl)acetamido)-N-hydroxybutanamido)acetamido)pentanedioic Acid], `O=C(O)CC[C@@H](C(=O)O)N(O)C(=O)N[C@@H](CCCCNC(=O)Cn1cc(CCCF)nn1)C(=O)O` [P148, (S)-2-(3-((S)-1-Carboxy-5-(2-(4-(3-fluoropropyl)-1H-1,2,3-triazol-1-yl)acetamido)pentyl)-1-hydroxyureido)pentanedioic Acid] is higher in “PSMA Blkg % (10 μM)” value: 5% for the first, 87% for the second.

First: O=C(O)CC[C@H](NC(=S)CN(O)C(=O)CCCc1ccc(-n2cc(CCCF)nn2)cc1)C(=O)O [P145, (S)-2-(2-(4-(4-(4-(3-Fluoropropyl)-1H-1,2,3-triazol-1-yl)phenyl)-N-hydroxy-butanamido)ethanethioamido)pentanedioic Acid]
Second: O=C(O)CC[C@@H](C(=O)O)N(O)C(=O)N[C@@H](CCCCNC(=O)CCCc1ccc(-n2cc(CCCF)nn2)cc1)C(=O)O [P147, (S)-2-(3-((S)-1-Carboxy-5-(4-(4-(4-(3-fluoropropyl)-1H-1,2,3-triazol-1-yl)phenyl)butanamido)pentyl)-1-hydroxyureido)pentanedioic Acid]
The “PSMA Blkg % (10 μM)” value of the first is lower: 7% for the first, 69% for the second.

First: O=C(O)CC[C@H](NC(=S)N(O)[C@@H](CCCCNC(=O)c1ccc(-n2cc(CCCF)nn2)cc1)C(=O)O)C(=O)O [P146, (S)-2-(3-((S)-1-Carboxy-5-(4-(4-(3-fluoropropyl)-1H-1,2,3-triazol-1-yl)benzamido)pentyl)-3-hydroxythioureido)pentanedioic Acid]
Second: COc1ccc(CCNC(=O)N(O)CC(=O)N[C@@H](CCC(=O)O)C(=O)O)cc1OC [P149, (S)-2-(2-(3-(3,4-Dimethoxyphenethyl)-1-hydroxyureido)acetamido)pentanedioic Acid]
The “PSMA Blkg % (10 μM)” value of the first is higher: 45% for the first, 0% for the second.
